# Experimental data reported in article PMC6358602, “The catalytic activity and secretion of zebrafish RNases are essential for their in vivo function in motor neurons and vasculature” (Scientific Reports, 2019).
# Biological target: T1, human angiogenin (hANG) (Homo sapiens, UniProt P03950)
# T1 construct: gene ANG; [Met−1]-form
# Assay: fluorogenic RNase activity assay with and without NCI-65828 (Fig. 1E)
# Assay type: biochemical
# T1 sequence (P03950 25-147): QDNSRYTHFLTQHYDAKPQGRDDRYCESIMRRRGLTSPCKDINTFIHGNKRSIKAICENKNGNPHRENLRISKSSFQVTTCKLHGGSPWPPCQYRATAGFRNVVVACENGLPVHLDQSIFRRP
compound,measurement,value
"Nc1ccc(/N=N/c2ccc(-c3ccc(O)cc3)cc2)c2ccc(S(=O)(=O)O)cc12 [NCI-65828, 8-amino-5-(4′-hydroxybiphenyl-4-azo) napathlene-2-sulphate]",fluorogenic RNase activity assay with and without NCI-65828 (Fig. 1E),Enzyme kinetic data for Rnasel and hANG native protein and in the presence of NCI-65828.
